Literature values in patent US4814324A, “Sterol inhibitors of testosterone 5α-reductase” (Merck & Co., Inc., priority 1987, dated 1989).

What was measured:
[1] = test system: testosterone-5α-reductase; details: Voigt and Hsia, Endocrinology, 92, 1216 (1973)
[2] = test system: female hamster flank organ; details: Voigt and Hsia; for response elicited by 5α-dihydrotestosterone (flank organ enlargement) / response elicited by testosterone (flank organ enlargement): topical; for response elicited by 5α-dihydrotestosterone (flank organ enlargement): concomitant with 5α-dihydrotestosterone; for response elicited by testosterone (flank organ enlargement): concomitant with testosterone; for enlargement of the female hamster flank organ: topical application alone

C[C@]12CC[C@H]3[C@@H](CCC4=CC(=O)CC[C@@]43C)[C@@H]1CC[C@@H]2C(=O)O [4-androsten-3-one-17β-carboxylic acid]
testosterone-5α-reductase inhibition in vitro [1]: active inhibitors | response elicited by 5α-dihydrotestosterone (flank organ enlargement) [2]: did not inhibit the response elicited by 5α-dihydrotestosterone | response elicited by testosterone (flank organ enlargement) [2]: inhibited the response elicited by testosterone

C[C@]12CCC(=O)C[C@@H]1CC[C@@H]1[C@@H]2CC[C@]2(C)[C@@H](O)CC[C@@H]12 [5α-dihydrotesterone, 5α-dihydrotestosterone]
enlargement of the female hamster flank organ [2]: caused enlargement of the female hamster flank organ

COC(=O)[C@H]1CC[C@H]2[C@@H]3CCC4=CC(=O)CC[C@]4(C)[C@H]3CC[C@]12C [methyl 4-androsten-3-one-17β-carboxylate]
testosterone-5α-reductase inhibition in vitro [1]: active inhibitors | response elicited by 5α-dihydrotestosterone (flank organ enlargement) [2]: did not inhibit the response elicited by 5α-dihydrotestosterone | response elicited by testosterone (flank organ enlargement) [2]: inhibited the response elicited by testosterone

C[C@]12CC[C@H]3[C@@H](CCC4=CC(=O)CC[C@@]43C)[C@@H]1CC[C@@H]2O [testosterone]
enlargement of the female hamster flank organ [2]: caused enlargement of the female hamster flank organ
